The NIST ThermoML archive (doi:10.1021/je800334m)
± gives the expanded uncertainty stated by the source.

Test: excess molar enthalpy (molar enthalpy of mixing); xn = mol fraction of the nth substance listed
Settings: Liquid, Flow calorimetry

CN(C)CCO [2-(N,N-dimethylamino)ethanol] + CCO
excess molar enthalpy (298.2 K, 100 kPa, x1 = 0.0717): -0.035 ± 0.000884 kcal/mol | excess molar enthalpy (298.2 K, 100 kPa, x1 = 0.1392): -0.0579 ± 0.00134 kcal/mol | excess molar enthalpy (298.2 K, 100 kPa, x1 = 0.2054): -0.0763 ± 0.0017 kcal/mol | excess molar enthalpy (298.2 K, 100 kPa, x1 = 0.2665): -0.0874 ± 0.00191 kcal/mol | excess molar enthalpy (298.2 K, 100 kPa, x1 = 0.3264): -0.0938 ± 0.00206 kcal/mol | excess molar enthalpy (298.2 K, 100 kPa, x1 = 0.3845): -0.0975 ± 0.00213 kcal/mol | excess molar enthalpy (298.2 K, 100 kPa, x1 = 0.4399): -0.0983 ± 0.00215 kcal/mol | excess molar enthalpy (298.2 K, 100 kPa, x1 = 0.4916): -0.0967 ± 0.0021 kcal/mol | excess molar enthalpy (298.2 K, 100 kPa, x1 = 0.5427): -0.0933 ± 0.00206 kcal/mol | excess molar enthalpy (298.2 K, 100 kPa, x1 = 0.5925): -0.0886 ± 0.00194 kcal/mol | excess molar enthalpy (298.2 K, 100 kPa, x1 = 0.6409): -0.0822 ± 0.00182 kcal/mol | excess molar enthalpy (298.2 K, 100 kPa, x1 = 0.6874): -0.0745 ± 0.00165 kcal/mol | excess molar enthalpy (298.2 K, 100 kPa, x1 = 0.7314): -0.0665 ± 0.00148 kcal/mol | excess molar enthalpy (298.2 K, 100 kPa, x1 = 0.7727): -0.0592 ± 0.00134 kcal/mol | excess molar enthalpy (298.2 K, 100 kPa, x1 = 0.8157): -0.0487 ± 0.00112 kcal/mol | excess molar enthalpy (298.2 K, 100 kPa, x1 = 0.8553): -0.0402 ± 0.000956 kcal/mol | excess molar enthalpy (298.2 K, 100 kPa, x1 = 0.8911): -0.031 ± 0.000789 kcal/mol | excess molar enthalpy (298.2 K, 100 kPa, x1 = 0.9281): -0.0203 ± 0.000598 kcal/mol | excess molar enthalpy (298.2 K, 100 kPa, x1 = 0.9663): -0.00889 ± 0.00043 kcal/mol | excess molar enthalpy (298.2 K, 10000 kPa, x1 = 0.0721): -0.0371 ± 0.000932 kcal/mol | excess molar enthalpy (298.2 K, 10000 kPa, x1 = 0.1399): -0.0613 ± 0.00141 kcal/mol | excess molar enthalpy (298.2 K, 10000 kPa, x1 = 0.2039): -0.0767 ± 0.0017 kcal/mol | excess molar enthalpy (298.2 K, 10000 kPa, x1 = 0.2678): -0.0878 ± 0.00194 kcal/mol | excess molar enthalpy (298.2 K, 10000 kPa, x1 = 0.3279): -0.0955 ± 0.0021 kcal/mol | excess molar enthalpy (298.2 K, 10000 kPa, x1 = 0.3829): -0.0988 ± 0.00215 kcal/mol | excess molar enthalpy (298.2 K, 10000 kPa, x1 = 0.4381): -0.0997 ± 0.00217 kcal/mol | excess molar enthalpy (298.2 K, 10000 kPa, x1 = 0.4933): -0.0979 ± 0.00215 kcal/mol | excess molar enthalpy (298.2 K, 10000 kPa, x1 = 0.5443): -0.0944 ± 0.00208 kcal/mol | excess molar enthalpy (298.2 K, 10000 kPa, x1 = 0.5941): -0.0891 ± 0.00196 kcal/mol | excess molar enthalpy (298.2 K, 10000 kPa, x1 = 0.6383): -0.0835 ± 0.00184 kcal/mol | excess molar enthalpy (298.2 K, 10000 kPa, x1 = 0.6845): -0.0762 ± 0.0017 kcal/mol | excess molar enthalpy (298.2 K, 10000 kPa, x1 = 0.7283): -0.0684 ± 0.00153 kcal/mol | excess molar enthalpy (298.2 K, 10000 kPa, x1 = 0.7739): -0.0591 ± 0.00134 kcal/mol | excess molar enthalpy (298.2 K, 10000 kPa, x1 = 0.8118): -0.0505 ± 0.00117 kcal/mol | excess molar enthalpy (298.2 K, 10000 kPa, x1 = 0.8511): -0.0409 ± 0.00098 kcal/mol | excess molar enthalpy (298.2 K, 10000 kPa, x1 = 0.8917): -0.0305 ± 0.000765 kcal/mol | excess molar enthalpy (298.2 K, 10000 kPa, x1 = 0.9285): -0.0202 ± 0.000598 kcal/mol | excess molar enthalpy (298.2 K, 10000 kPa, x1 = 0.9665): -0.00903 ± 0.000406 kcal/mol | excess molar enthalpy (313.2 K, 100 kPa, x1 = 0.0717): -0.0369 ± 0.000932 kcal/mol | excess molar enthalpy (313.2 K, 100 kPa, x1 = 0.1392): -0.0621 ± 0.00141 kcal/mol | excess molar enthalpy (313.2 K, 100 kPa, x1 = 0.2028): -0.0786 ± 0.00174 kcal/mol | excess molar enthalpy (313.2 K, 100 kPa, x1 = 0.2665): -0.0911 ± 0.00201 kcal/mol | excess molar enthalpy (313.2 K, 100 kPa, x1 = 0.3264): -0.0978 ± 0.00215 kcal/mol | excess molar enthalpy (313.2 K, 100 kPa, x1 = 0.3845): -0.101 ± 0.00222 kcal/mol | excess molar enthalpy (313.2 K, 100 kPa, x1 = 0.4399): -0.102 ± 0.00222 kcal/mol | excess molar enthalpy (313.2 K, 100 kPa, x1 = 0.4916): -0.1 ± 0.00217 kcal/mol | excess molar enthalpy (313.2 K, 100 kPa, x1 = 0.5427): -0.0963 ± 0.0021 kcal/mol | excess molar enthalpy (313.2 K, 100 kPa, x1 = 0.5925): -0.0911 ± 0.00201 kcal/mol | excess molar enthalpy (313.2 K, 100 kPa, x1 = 0.6409): -0.0846 ± 0.00186 kcal/mol | excess molar enthalpy (313.2 K, 100 kPa, x1 = 0.683): -0.0777 ± 0.00172 kcal/mol | excess molar enthalpy (313.2 K, 100 kPa, x1 = 0.727): -0.0695 ± 0.00155 kcal/mol | excess molar enthalpy (313.2 K, 100 kPa, x1 = 0.7727): -0.0602 ± 0.00136 kcal/mol | excess molar enthalpy (313.2 K, 100 kPa, x1 = 0.8108): -0.0513 ± 0.00117 kcal/mol | excess molar enthalpy (313.2 K, 100 kPa, x1 = 0.8553): -0.0402 ± 0.000956 kcal/mol | excess molar enthalpy (313.2 K, 100 kPa, x1 = 0.8911): -0.0309 ± 0.000765 kcal/mol | excess molar enthalpy (313.2 K, 100 kPa, x1 = 0.9281): -0.0209 ± 0.000598 kcal/mol | excess molar enthalpy (313.2 K, 100 kPa, x1 = 0.9663): -0.00985 ± 0.00043 kcal/mol | excess molar enthalpy (313.2 K, 10000 kPa, x1 = 0.0699): -0.037 ± 0.000932 kcal/mol | excess molar enthalpy (313.2 K, 10000 kPa, x1 = 0.1399): -0.0633 ± 0.00143 kcal/mol | excess molar enthalpy (313.2 K, 10000 kPa, x1 = 0.2039): -0.0802 ± 0.00177 kcal/mol | excess molar enthalpy (313.2 K, 10000 kPa, x1 = 0.265): -0.0917 ± 0.00201 kcal/mol | excess molar enthalpy (313.2 K, 10000 kPa, x1 = 0.3249): -0.0989 ± 0.00215 kcal/mol | excess molar enthalpy (313.2 K, 10000 kPa, x1 = 0.3829): -0.102 ± 0.00222 kcal/mol | excess molar enthalpy (313.2 K, 10000 kPa, x1 = 0.4381): -0.103 ± 0.00225 kcal/mol | excess molar enthalpy (313.2 K, 10000 kPa, x1 = 0.4933): -0.101 ± 0.0022 kcal/mol | excess molar enthalpy (313.2 K, 10000 kPa, x1 = 0.5443): -0.0972 ± 0.00213 kcal/mol | excess molar enthalpy (313.2 K, 10000 kPa, x1 = 0.5902): -0.0923 ± 0.00203 kcal/mol | excess molar enthalpy (313.2 K, 10000 kPa, x1 = 0.6383): -0.0856 ± 0.00189 kcal/mol | excess molar enthalpy (313.2 K, 10000 kPa, x1 = 0.6845): -0.0782 ± 0.00172 kcal/mol | excess molar enthalpy (313.2 K, 10000 kPa, x1 = 0.7283): -0.0701 ± 0.00155 kcal/mol | excess molar enthalpy (313.2 K, 10000 kPa, x1 = 0.7739): -0.0605 ± 0.00136 kcal/mol | excess molar enthalpy (313.2 K, 10000 kPa, x1 = 0.8118): -0.0517 ± 0.0012 kcal/mol | excess molar enthalpy (313.2 K, 10000 kPa, x1 = 0.8511): -0.042 ± 0.001 kcal/mol | excess molar enthalpy (313.2 K, 10000 kPa, x1 = 0.8917): -0.0311 ± 0.000789 kcal/mol | excess molar enthalpy (313.2 K, 10000 kPa, x1 = 0.9285): -0.021 ± 0.000598 kcal/mol | excess molar enthalpy (313.2 K, 10000 kPa, x1 = 0.9665): -0.00989 ± 0.00043 kcal/mol | excess molar enthalpy (328.2 K, 100 kPa, x1 = 0.2034): -0.0744 ± 0.00165 kcal/mol | excess molar enthalpy (328.2 K, 100 kPa, x1 = 0.2654): -0.0854 ± 0.00189 kcal/mol | excess molar enthalpy (328.2 K, 100 kPa, x1 = 0.3253): -0.092 ± 0.00201 kcal/mol | excess molar enthalpy (328.2 K, 100 kPa, x1 = 0.3839): -0.0953 ± 0.00208 kcal/mol | excess molar enthalpy (328.2 K, 100 kPa, x1 = 0.4385): -0.0962 ± 0.0021 kcal/mol | excess molar enthalpy (328.2 K, 100 kPa, x1 = 0.4924): -0.094 ± 0.00206 kcal/mol | excess molar enthalpy (328.2 K, 100 kPa, x1 = 0.5427): -0.0913 ± 0.00201 kcal/mol | excess molar enthalpy (328.2 K, 100 kPa, x1 = 0.591): -0.0857 ± 0.00189 kcal/mol | excess molar enthalpy (328.2 K, 100 kPa, x1 = 0.6393): -0.0799 ± 0.00177 kcal/mol | excess molar enthalpy (328.2 K, 100 kPa, x1 = 0.6848): -0.0727 ± 0.0016 kcal/mol | excess molar enthalpy (328.2 K, 100 kPa, x1 = 0.7296): -0.065 ± 0.00143 kcal/mol | excess molar enthalpy (328.2 K, 10000 kPa, x1 = 0.2044): -0.0752 ± 0.00167 kcal/mol | excess molar enthalpy (328.2 K, 10000 kPa, x1 = 0.2667): -0.086 ± 0.00189 kcal/mol | excess molar enthalpy (328.2 K, 10000 kPa, x1 = 0.3267): -0.0926 ± 0.00203 kcal/mol | excess molar enthalpy (328.2 K, 10000 kPa, x1 = 0.3835): -0.0962 ± 0.0021 kcal/mol | excess molar enthalpy (328.2 K, 10000 kPa, x1 = 0.4381): -0.0965 ± 0.0021 kcal/mol | excess molar enthalpy (328.2 K, 10000 kPa, x1 = 0.4919): -0.0945 ± 0.00208 kcal/mol | excess molar enthalpy (328.2 K, 10000 kPa, x1 = 0.5421): -0.0909 ± 0.00201 kcal/mol | excess molar enthalpy (328.2 K, 10000 kPa, x1 = 0.5926): -0.0858 ± 0.00189 kcal/mol | excess molar enthalpy (328.2 K, 10000 kPa, x1 = 0.6383): -0.0795 ± 0.00177 kcal/mol
